Experimental data reported in patent US6277882A, “Utilization of alkyl hydrogen fumarates for treating psoriasis, psoriatic arthritis, neurodermatitis and regional enteritis” (priority 1998, dated 2001).
Where a name gives a salt, the structure may show the parent alone.

Legend:
[1] = Pharmaceutical equivalency: comparison of pharmacokinetic data (methyl hydrogen fumarate level); settings: rat, in vivo, 100 mg/kg, dosage 100 mg/kg body-wt.
in vivo = settings: rat, oral administration; for LD50: in vivo, po
Procedure: Before the clinical trial, the acute toxicity of methyl hydrogen fumarate was tested by oral administration to rats.
Acute toxicity on rats (oral administration)

[2] = high dosages; parenteral, dermal and particularly oral route; cited from earlier work
Ehrlich ascites tumour = settings: mice; cited from earlier work
[3] = system: toxic effects of Mitomycin C and Aflatoxin; settings: cited from earlier work
psoriasis = settings: cited from earlier work
microbes = settings: cited from earlier work
phosphoslipase A2 = settings: cited from earlier work

## COC(=O)/C=C/C(=O)O.[Ca] [Methyl hydrogen fumarate calcium salt]
[1]; female
  Cmax: 107 µg/mL
[1]; male
  Cmax: 51.3 µg/mL

## COC(=O)/C=C/C(=O)O [Methyl hydrogen fumarate, methyl hydrogen fumarate]
In vivo; female
  LD50: 1780 mg/kg
  Lowest lethal dose in mg/kg: 1,470.0 mg/kg
In vivo; male
  LD50: 2610 mg/kg
  Lowest lethal dose in mg/kg: 2,150.0 mg/kg
[1]; female
  Cmax: 84.8 µg/mL
[1]; male
  Cmax: 69.9 µg/mL

## O=C(O)/C(O)=C(\O)C(=O)O [dihydroxy fumaric acid]
[2]
  rate of side effects and toxicity: unacceptable rate of side effects and high toxicity

## NC(=O)/C=C/C(N)=O [fumaramide]
[2]
  rate of side effects and toxicity: unacceptable rate of side effects and high toxicity

## O=C(O)/C=C/C(=O)O [fumaric acid]
Ehrlich ascites tumour
  growth of the Ehrlich ascites tumour: inhibits the growth of the Ehrlich ascites tumour in mice
[3]
  toxic effects of Mitomycin C and Aflatoxin: reduces the toxic effects of Mitomycin C and Aflatoxin
psoriasis
  anti-psoriatic effect: anti-psoriatic
microbes
  antimicrobial effect: antimicrobial effect
Phosphoslipase A2
  stimulation of phosphoslipase A2: stimulated

## N#C/C=C/C#N [fumaronitrile]
[2]
  rate of side effects and toxicity: unacceptable rate of side effects and high toxicity
